Reference: patent US11655225B2, “Antimycobacterial heterocyclic amides” (Crestone, Inc., priority 2018, dated 2023)
Values after ≈ are worked out from the molar mass of the structure shown.

Each molecule was assayed on M. abscessus (assay: MIC determination, CLSI M24-A). Details: Mycobacteroides abscessus, CLSI M24-A.
Type: cell-based

Compound | MIC
CC1(C(=O)Nc2nc3cc(Br)ccc3s2)CCCC1 [Example 153, N-(5-bromo-1,3-benzothiazol-2-yl)-1-methylcyclopentane-1-carboxamide] | 2 to 32 µg/mL (≈ 5.9 to 94.3 µM)
CC1(C(=O)Nc2nc3c(F)c(F)c(F)cc3s2)CCCCC1 [Example 154, 1-methyl-N-(4,5,6-trifluoro-1,3-benzothiazol-2-yl)cyclohexane-1-carboxamide] | 2 to 32 µg/mL (≈ 6.09 to 97.5 µM)
O=C(Nc1nc2ccccc2o1)C12CC3CC(CC(C3)C1)C2 [Example 155, N-(1,3-benzoxazol-2-yl)adamantane-1-carboxamide] | 2 to 32 µg/mL (≈ 6.75 to 108 µM)
O=C(Nc1nc2ccc(OC(F)F)cc2s1)C1CCCCC1 [Example 156, N-[6-(difluoromethoxy)-1,3-benzothiazol-2-yl]cyclohexanecarboxamide] | 2 to 32 µg/mL (≈ 6.13 to 98 µM)
O=C(Nc1nc2c(F)cc(F)cc2s1)C1CCCCC1 [Example 157, N-(4,6-difluoro-1,3-benzothiazol-2-yl)cyclohexanecarboxamide] | 2 to 32 µg/mL (≈ 6.75 to 108 µM)
CC1CC(C(=O)Nc2nc3ccc(Br)cc3o2)CC(C)(C)C1 (centres unmarked) [Example 158, N-(6-bromo-1,3-benzoxazol-2-yl)-3,3,5-trimethylcyclohexane-1-carboxamide] | 2 to 32 µg/mL (≈ 5.48 to 87.6 µM)
O=C(Nc1nc2ccccc2o1)C1CC2CCCC(C2)C1 (centres unmarked) [Example 159, N-(1,3-benzoxazol-2-yl)bicyclo[3.3.1]nonane-3-carboxamide] | 2 to 32 µg/mL (≈ 7.03 to 113 µM)
O=C(Nc1cc2ccccc2s1)C1CCCCCC1 [Example 160, N-(1-benzothiophen-2-yl)cycloheptanecarboxamide] | 2 to 32 µg/mL (≈ 7.32 to 117 µM)
Cc1cc(C)c2oc(NC(=O)C34CC5CC(C)(CC(C)(C5)C3)C4)nc2c1 [Example 161, N-(5,7-dimethyl-1,3-benzoxazol-2-yl)-3,5-dimethyladamantane-1-carboxamide] | 2 to 32 µg/mL (≈ 5.67 to 90.8 µM)
COc1ccc2nc(NC(=O)C3CC(C)CC(C)(C)C3)oc2c1 (centres unmarked) [Example 162, N-(6-methoxy-1,3-benzoxazol-2-yl)-3,3,5-trimethylcyclohexane-1-carboxamide] | 2 to 32 µg/mL (≈ 6.32 to 101 µM)
CC1CC(C(=O)Nc2nc3ccc(C(F)(F)F)cc3o2)CC(C)(C)C1 (centres unmarked) [Example 163, 3,3,5-trimethyl-N-[6-(trifluoromethyl)-1,3-benzoxazol-2-yl]cyclohexane-1-carboxamide] | 2 to 32 µg/mL (≈ 5.64 to 90.3 µM)
CC12CC3CC(C)(C1)CC(C(=O)Nc1nc4cc(Cl)c(Cl)cc4[nH]1)(C3)C2 [Example 164, N-(5,6-dichloro-1H-1,3-benzodiazol-2-yl)-3,5-dimethyladamantane-1-carboxamide] | 2 to 32 µg/mL (≈ 5.1 to 81.6 µM)
CC1CC(C(=O)Nc2nc3ccccc3o2)CC(C)(C)C1 (centres unmarked) [Example 165, N-(1,3-benzoxazol-2-yl)-3,3,5-trimethylcyclohexane-1-carboxamide] | 2 to 32 µg/mL (≈ 6.98 to 112 µM)
CC1CCCCC1C(=O)Nc1nc2ccccc2s1 (centres unmarked) [Example 166, N-(1,3-benzothiazol-2-yl)-2-methylcyclohexane-1-carboxamide] | 2 to 32 µg/mL (≈ 7.29 to 117 µM)
CC1CCCC(C(=O)Nc2nc3c(Cl)cccc3s2)C1 (centres unmarked) [Example 167, N-(4-chloro-1,3-benzothiazol-2-yl)-3-methylcyclohexane-1-carboxamide] | 2 to 32 µg/mL (≈ 6.48 to 104 µM)
CC1CCCC(C(=O)Nc2nc3ccc(Cl)cc3s2)C1 (centres unmarked) [Example 168, N-(6-chloro-1,3-benzothiazol-2-yl)-3-methylcyclohexane-1-carboxamide] | 2 to 32 µg/mL (≈ 6.48 to 104 µM)
CC1CCCC(C(=O)Nc2nc3c(F)cc(F)cc3s2)C1 (centres unmarked) [Example 169, N-(4,6-difluoro-1,3-benzothiazol-2-yl)-3-methylcyclohexane-1-carboxamide] | 2 to 32 µg/mL (≈ 6.44 to 103 µM)
CC1CCCC(C(=O)Nc2nc3ccc(F)cc3s2)C1 (centres unmarked) [Example 170, N-(6-fluoro-1,3-benzothiazol-2-yl)-3-methylcyclohexane-1-carboxamide] | 2 to 32 µg/mL (≈ 6.84 to 109 µM)
CC1(C(=O)Nc2nc3c(F)cc(F)cc3s2)CCCCC1 [Example 171, N-(4,6-difluoro-1,3-benzothiazol-2-yl)-1-methylcyclohexane-1-carboxamide] | 2 to 32 µg/mL (≈ 6.44 to 103 µM)
CC1(C(=O)Nc2nc3ccc(OC(F)F)cc3s2)CCCCC1 [Example 172, N-[6-(difluoromethoxy)-1,3-benzothiazol-2-yl]-1-methylcyclohexane-1-carboxamide] | 2 to 32 µg/mL (≈ 5.88 to 94 µM)
